Source: the kinase profiling compilation of Christmann-Franck et al. (2016)

Legend:
Assay in all cases: KINOMEscan competition binding
[1] = biological target: ABL1 (human), P00519 [Q252H]
[2] = biological target: ABL1 (human), P00519 [T315I]
[3] = biological target: BTK (human) (UniProt Q06187)
[4] = biological target: CAMK2G (human) (UniProt Q13555)
[5] = biological target: CAMKK1 (human) (UniProt Q8N5S9)
[6] = biological target: CLK1 (human) (UniProt P49759)
[7] = biological target: CLK3 (human) (UniProt P49761)
[8] = biological target: CSNK1G1 (human) (UniProt Q9HCP0)
[9] = biological target: EPHA2 (human) (UniProt P29317)
[10] = biological target: EPHA4 (human) (UniProt P54764)
[11] = biological target: EPHA6 (human) (UniProt Q9UF33)
[12] = biological target: EPHA7 (human) (UniProt Q15375)
[13] = biological target: EPHA8 (human) (UniProt P29322)
[14] = biological target: EPHB1 (human) (UniProt P54762)
[15] = biological target: EPHB4 (human) (UniProt P54760)
[16] = biological target: ERBB2 (human) (UniProt P04626)
[17] = biological target: FGFR3 (human) (UniProt P22607)
[18] = biological target: FLT3 (human) (UniProt P36888)
[19] = biological target: FLT4 (human) (UniProt P35916)
[20] = biological target: HCK (human) (UniProt P08631)
[21] = biological target: INSR (human) (UniProt P06213)
[22] = biological target: JAK2 JH2 pseudokinase (human) (UniProt O60674)
[23] = biological target: KDR (human) (UniProt P35968)
[24] = biological target: KIT (human) (UniProt P10721)
[25] = biological target: LCK (human) (UniProt P06239)
[26] = biological target: MAP3K4 (human) (UniProt Q9Y6R4)
[27] = biological target: MAP3K5 (human) (UniProt Q99683)
[28] = biological target: NEK2 (human) (UniProt P51955)
[29] = biological target: NEK9 (human) (UniProt Q8TD19)
[30] = biological target: PAK1 (human) (UniProt Q13153)
[31] = biological target: PAK6 (human) (UniProt Q9NQU5)
[32] = biological target: PAK7 (human) (UniProt Q9P286)
[33] = biological target: PHKG1 (human) (UniProt Q16816)
[34] = biological target: PIM1 (human) (UniProt P11309)
[35] = biological target: PKMYT1 (human) (UniProt Q99640)
[36] = biological target: PRKAA1 (human) (UniProt Q13131)
[37] = biological target: PTK2 (human) (UniProt Q05397)
[38] = biological target: RPS6KA3 KD1 (human) (UniProt P51812)
[39] = biological target: SRC (human) (UniProt P12931)
[40] = biological target: STK10 (human) (UniProt O94804)
[41] = biological target: STK16 (human) (UniProt O75716)
[42] = biological target: TNK2 (human) (UniProt Q07912)

Sequence of PAK6 (human) (Q9NQU5 whole entry, looked up): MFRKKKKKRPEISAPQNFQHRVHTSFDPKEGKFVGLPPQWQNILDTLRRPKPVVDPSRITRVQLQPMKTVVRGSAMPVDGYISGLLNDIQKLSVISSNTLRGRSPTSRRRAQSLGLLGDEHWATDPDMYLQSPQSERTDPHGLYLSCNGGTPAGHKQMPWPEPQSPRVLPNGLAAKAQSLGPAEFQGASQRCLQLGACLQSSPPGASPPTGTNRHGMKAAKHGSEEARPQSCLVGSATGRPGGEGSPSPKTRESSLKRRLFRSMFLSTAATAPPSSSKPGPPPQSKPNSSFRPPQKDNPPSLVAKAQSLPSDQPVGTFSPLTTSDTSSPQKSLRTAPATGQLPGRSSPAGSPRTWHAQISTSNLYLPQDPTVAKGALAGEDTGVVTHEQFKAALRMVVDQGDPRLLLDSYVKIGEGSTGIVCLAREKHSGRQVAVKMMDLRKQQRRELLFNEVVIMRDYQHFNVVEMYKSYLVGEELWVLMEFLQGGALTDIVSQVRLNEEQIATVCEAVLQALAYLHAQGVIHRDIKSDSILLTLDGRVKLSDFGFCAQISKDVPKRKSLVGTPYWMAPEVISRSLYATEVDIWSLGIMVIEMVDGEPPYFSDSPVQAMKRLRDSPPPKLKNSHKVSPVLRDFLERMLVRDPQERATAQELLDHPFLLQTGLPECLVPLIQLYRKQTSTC
Sequence of NEK9 (human) (Q8TD19 whole entry, looked up): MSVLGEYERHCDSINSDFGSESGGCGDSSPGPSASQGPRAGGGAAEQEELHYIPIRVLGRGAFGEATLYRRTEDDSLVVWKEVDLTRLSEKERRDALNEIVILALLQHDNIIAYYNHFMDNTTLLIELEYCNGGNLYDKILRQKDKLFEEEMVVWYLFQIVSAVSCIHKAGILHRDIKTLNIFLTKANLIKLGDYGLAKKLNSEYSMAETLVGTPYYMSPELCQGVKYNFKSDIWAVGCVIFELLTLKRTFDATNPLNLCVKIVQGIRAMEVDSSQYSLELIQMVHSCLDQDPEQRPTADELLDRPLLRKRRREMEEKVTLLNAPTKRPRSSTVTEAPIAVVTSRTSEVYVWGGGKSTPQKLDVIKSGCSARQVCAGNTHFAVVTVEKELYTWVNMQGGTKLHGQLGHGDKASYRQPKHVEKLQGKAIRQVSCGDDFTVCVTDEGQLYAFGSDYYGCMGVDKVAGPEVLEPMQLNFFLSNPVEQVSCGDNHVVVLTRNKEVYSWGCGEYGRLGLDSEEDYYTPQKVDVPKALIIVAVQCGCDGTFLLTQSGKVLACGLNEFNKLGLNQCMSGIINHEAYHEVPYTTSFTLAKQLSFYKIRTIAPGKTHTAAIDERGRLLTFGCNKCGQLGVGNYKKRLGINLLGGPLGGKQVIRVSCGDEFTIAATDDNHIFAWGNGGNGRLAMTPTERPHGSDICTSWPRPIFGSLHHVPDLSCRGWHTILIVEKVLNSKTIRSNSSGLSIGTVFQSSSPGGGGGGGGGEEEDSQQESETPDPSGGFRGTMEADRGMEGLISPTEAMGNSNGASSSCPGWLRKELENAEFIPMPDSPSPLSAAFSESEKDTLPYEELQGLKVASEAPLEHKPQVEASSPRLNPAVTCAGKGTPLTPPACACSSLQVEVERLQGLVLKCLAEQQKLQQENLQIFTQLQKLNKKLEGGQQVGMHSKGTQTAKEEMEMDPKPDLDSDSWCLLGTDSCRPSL
Sequence of SRC (human) (P12931 whole entry, looked up): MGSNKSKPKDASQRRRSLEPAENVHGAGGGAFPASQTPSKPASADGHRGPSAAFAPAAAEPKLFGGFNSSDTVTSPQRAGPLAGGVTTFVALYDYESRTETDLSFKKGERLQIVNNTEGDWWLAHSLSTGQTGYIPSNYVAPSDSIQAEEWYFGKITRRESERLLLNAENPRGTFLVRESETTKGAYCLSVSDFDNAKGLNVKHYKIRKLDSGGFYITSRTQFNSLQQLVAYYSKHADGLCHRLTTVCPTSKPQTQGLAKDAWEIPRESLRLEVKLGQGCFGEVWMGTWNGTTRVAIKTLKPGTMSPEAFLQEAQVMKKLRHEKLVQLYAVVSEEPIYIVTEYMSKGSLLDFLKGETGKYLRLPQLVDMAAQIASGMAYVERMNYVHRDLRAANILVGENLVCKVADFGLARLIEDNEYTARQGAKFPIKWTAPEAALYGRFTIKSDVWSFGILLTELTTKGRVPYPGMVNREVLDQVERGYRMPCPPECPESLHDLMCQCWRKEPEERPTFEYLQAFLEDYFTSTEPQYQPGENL
Sequence of CLK1 (human) (P49759 whole entry, looked up): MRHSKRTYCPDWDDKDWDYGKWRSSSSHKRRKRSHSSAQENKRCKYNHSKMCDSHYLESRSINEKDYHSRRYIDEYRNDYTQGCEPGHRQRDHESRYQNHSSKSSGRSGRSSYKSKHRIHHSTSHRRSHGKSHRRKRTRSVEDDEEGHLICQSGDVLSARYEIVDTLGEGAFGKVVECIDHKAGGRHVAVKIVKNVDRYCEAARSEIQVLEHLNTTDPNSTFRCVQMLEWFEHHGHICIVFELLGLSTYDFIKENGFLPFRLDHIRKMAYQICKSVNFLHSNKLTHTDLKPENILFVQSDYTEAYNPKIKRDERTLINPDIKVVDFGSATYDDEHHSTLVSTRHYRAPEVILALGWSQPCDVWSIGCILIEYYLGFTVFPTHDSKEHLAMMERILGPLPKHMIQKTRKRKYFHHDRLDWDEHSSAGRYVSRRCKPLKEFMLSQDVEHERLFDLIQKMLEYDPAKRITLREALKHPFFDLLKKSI
Sequence of PRKAA1 (human) (Q13131 whole entry, looked up): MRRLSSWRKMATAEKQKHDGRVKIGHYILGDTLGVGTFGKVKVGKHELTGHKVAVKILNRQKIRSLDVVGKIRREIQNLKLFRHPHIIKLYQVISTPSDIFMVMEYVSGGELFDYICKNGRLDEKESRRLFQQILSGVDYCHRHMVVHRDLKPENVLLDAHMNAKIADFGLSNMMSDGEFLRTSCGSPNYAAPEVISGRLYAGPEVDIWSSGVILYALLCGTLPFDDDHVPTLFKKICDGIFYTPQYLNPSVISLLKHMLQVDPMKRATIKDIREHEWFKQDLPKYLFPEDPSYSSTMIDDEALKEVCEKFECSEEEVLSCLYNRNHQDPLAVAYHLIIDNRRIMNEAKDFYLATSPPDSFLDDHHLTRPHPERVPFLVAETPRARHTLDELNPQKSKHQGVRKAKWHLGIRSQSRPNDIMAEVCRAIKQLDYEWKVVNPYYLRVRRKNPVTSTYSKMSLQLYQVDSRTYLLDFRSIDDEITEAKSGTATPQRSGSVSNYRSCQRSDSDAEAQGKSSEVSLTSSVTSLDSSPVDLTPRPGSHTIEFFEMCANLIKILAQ
Sequence of PAK7 (human) (Q9P286 whole entry, looked up): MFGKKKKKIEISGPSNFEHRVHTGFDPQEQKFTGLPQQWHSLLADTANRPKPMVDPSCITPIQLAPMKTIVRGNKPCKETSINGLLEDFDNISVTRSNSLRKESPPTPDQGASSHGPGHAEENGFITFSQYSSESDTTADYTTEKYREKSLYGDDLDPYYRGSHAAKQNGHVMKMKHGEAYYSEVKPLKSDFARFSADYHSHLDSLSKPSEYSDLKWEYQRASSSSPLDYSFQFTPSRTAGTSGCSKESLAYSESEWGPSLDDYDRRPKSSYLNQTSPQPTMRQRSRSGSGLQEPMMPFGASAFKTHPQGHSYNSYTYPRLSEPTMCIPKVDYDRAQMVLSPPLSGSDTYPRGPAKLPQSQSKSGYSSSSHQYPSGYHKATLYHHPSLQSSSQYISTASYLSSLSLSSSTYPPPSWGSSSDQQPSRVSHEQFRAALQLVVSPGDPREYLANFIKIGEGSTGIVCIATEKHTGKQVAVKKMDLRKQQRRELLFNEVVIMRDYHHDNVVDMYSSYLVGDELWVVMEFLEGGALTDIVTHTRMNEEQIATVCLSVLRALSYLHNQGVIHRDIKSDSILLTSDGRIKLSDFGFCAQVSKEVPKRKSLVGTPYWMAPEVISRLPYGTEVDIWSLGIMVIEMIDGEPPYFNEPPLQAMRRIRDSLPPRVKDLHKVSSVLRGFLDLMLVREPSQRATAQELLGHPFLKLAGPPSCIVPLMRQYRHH
Sequence of NEK2 (human) (P51955 whole entry, looked up): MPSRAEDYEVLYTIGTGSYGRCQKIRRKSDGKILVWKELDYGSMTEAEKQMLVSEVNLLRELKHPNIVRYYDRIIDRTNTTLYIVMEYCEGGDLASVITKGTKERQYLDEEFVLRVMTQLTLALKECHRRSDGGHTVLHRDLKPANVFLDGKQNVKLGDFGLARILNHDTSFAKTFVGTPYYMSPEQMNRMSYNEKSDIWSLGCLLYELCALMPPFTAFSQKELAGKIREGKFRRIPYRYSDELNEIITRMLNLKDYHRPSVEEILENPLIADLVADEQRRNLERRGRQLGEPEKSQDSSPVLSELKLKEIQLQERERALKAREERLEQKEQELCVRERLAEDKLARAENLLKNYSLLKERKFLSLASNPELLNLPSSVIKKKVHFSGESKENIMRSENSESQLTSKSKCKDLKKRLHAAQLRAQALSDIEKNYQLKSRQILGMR
Sequence of PAK1 (human) (Q13153 whole entry, looked up): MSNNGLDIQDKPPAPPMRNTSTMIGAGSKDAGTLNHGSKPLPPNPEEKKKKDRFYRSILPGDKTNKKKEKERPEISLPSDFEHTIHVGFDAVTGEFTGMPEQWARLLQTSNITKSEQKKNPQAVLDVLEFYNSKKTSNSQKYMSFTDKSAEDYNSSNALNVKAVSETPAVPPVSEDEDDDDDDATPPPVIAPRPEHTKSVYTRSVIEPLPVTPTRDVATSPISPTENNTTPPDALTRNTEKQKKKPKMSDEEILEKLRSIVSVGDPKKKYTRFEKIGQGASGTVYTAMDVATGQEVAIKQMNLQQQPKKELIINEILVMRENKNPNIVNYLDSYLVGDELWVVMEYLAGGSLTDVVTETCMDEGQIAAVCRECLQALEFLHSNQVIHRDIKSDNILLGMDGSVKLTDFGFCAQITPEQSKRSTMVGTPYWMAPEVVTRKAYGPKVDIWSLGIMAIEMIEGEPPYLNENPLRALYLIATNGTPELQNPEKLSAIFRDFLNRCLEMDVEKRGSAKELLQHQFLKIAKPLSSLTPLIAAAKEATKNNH

O=C1c2ccccc2-c2n[nH]c3cccc1c23
Kd [1]: > 10 µM | Kd [2]: > 10 µM | Kd [3]: > 10 µM | Kd [4]: > 10 µM | Kd [5]: > 10 µM | Kd [6]: > 10 µM | Kd [7]: > 10 µM | Kd [8]: 3.7 µM | Kd [9]: > 10 µM | Kd [10]: > 10 µM | Kd [11]: > 10 µM | Kd [12]: > 10 µM | Kd [13]: > 10 µM | Kd [14]: > 10 µM | Kd [15]: > 10 µM | Kd [16]: > 10 µM | Kd [17]: > 10 µM | Kd [18]: > 10 µM | Kd [19]: > 10 µM | Kd [20]: > 10 µM | Kd [21]: > 10 µM | Kd [22]: > 10 µM | Kd [23]: > 10 µM | Kd [24]: > 10 µM | Kd [25]: > 10 µM | Kd [26]: > 10 µM | Kd [27]: > 10 µM | Kd [28]: > 10 µM | Kd [29]: > 10 µM | Kd [30]: > 10 µM | Kd [31]: > 10 µM | Kd [32]: > 10 µM | Kd [33]: > 10 µM | Kd [34]: > 10 µM | Kd [35]: > 10 µM | Kd [36]: > 10 µM | Kd [37]: > 10 µM | Kd [38]: > 10 µM | Kd [39]: > 10 µM | Kd [40]: > 10 µM | Kd [41]: 0.51 µM | Kd [42]: > 10 µM

Oc1ccc(-c2nc(-c3ccc(F)cc3)c(-c3ccncc3)[nH]2)cc1
Kd [1]: > 10 µM | Kd [2]: > 10 µM | Kd [3]: > 10 µM | Kd [4]: > 10 µM | Kd [5]: > 10 µM | Kd [6]: > 10 µM | Kd [7]: > 10 µM | Kd [8]: > 10 µM | Kd [9]: > 10 µM | Kd [10]: > 10 µM | Kd [11]: > 10 µM | Kd [12]: > 10 µM | Kd [13]: > 10 µM | Kd [14]: > 10 µM | Kd [15]: > 10 µM | Kd [16]: > 10 µM | Kd [17]: > 10 µM | Kd [18]: > 10 µM | Kd [19]: > 10 µM | Kd [20]: > 10 µM | Kd [21]: > 10 µM | Kd [22]: > 10 µM | Kd [23]: > 10 µM | Kd [24]: > 10 µM | Kd [25]: > 10 µM | Kd [26]: > 10 µM | Kd [27]: > 10 µM | Kd [28]: > 10 µM | Kd [29]: > 10 µM | Kd [30]: > 10 µM | Kd [31]: > 10 µM | Kd [32]: > 10 µM | Kd [33]: > 10 µM | Kd [34]: > 10 µM | Kd [35]: > 10 µM | Kd [36]: > 10 µM | Kd [37]: > 10 µM | Kd [38]: > 10 µM | Kd [39]: > 10 µM | Kd [40]: > 10 µM | Kd [41]: > 10 µM | Kd [42]: > 10 µM
